# Data published in patent US20150141523A1, “COMPOUNDS FOR USE IN THE TREATMENT OF AUTOIMMUNE INFLAMMATORY DISEASE” (Venantius Limited, priority 2012, published 2015).
# Like-named read-outs stand apart in the source and are kept apart here.
# Assays:
# [1] = tested on: β-hexosaminidase release from RBL-2H3 cells; conditions: cited from earlier work
# BalbC mice = assay: Arachidonic acid mouse ear oedema model; format: in vivo; conditions: 300 μg/ear in acetone, topical; arachidonic acid alone 86%
# Experimental: The arrachidonic mouse ear oedema model is an acute inflammation model based on activation of ecosanoid pathways. The mouse ear oedema model was performed using BalbC mice (25-35 g), of either sex. The ear was treated by the topical application (10 μl) of solvent (acetone 100%) or test drug (300 μg/ear in acetone) or Indomethacin (300 μg/ear in acetone). After one hour, oedema was induced by the topical application of arachidonic acid (10 μl at 0.4 g/ml in acetone). The width of each ear was measured, both before and 60 min after the induction of oedema, using a micrometer screw gauge. Ear oedema was calculated by comparing the ear width before and after induction of oedema and expressed as percentage normal. Animals were killed using CO2, without recovering from sedation.
# Balb/C mice = assay: Oxazolone contact hypersensitivity (CHS) mouse ear swelling; format: in vivo; conditions: 15 mg/kg; vehicle 107%
# Experimental: Female Balb/C mice (30-40 gms) were sensitised on day 0 with 20 μl of 2% oxazolone in acetone on each ear (10 μl on the inner and outer aspects of both ears). All mice were challenged on day 5 with 20 μl of 2% oxazolone in acetone only on the right ear; again, 10 μl on both the inner and outer aspects of the ear. Immediately following this, the mice were treated with test compound. The test compound was administered in exactly the same way as the oxazolone, with 10 μl on each side of the right ear. […] For the […] group, acetone was administered. All animals were killed 24 hrs later and the percentage increase in ear swelling was calculated. This was done in two ways. The thickness of the unchallenged left ear and the challenged right ear were measured using a micrometer caliper (μm). The increase in weight of both ears was also measured using a 5 mm biopsy punch (mgs). The percentage increase in oedema was then calculated for both weight and thickness by expressing the difference between the unchallenged left ear and the challenged right ear as a percentage of the left ear control.
# [2] = tested on: IL-2 secretion from Jurkat T cells; assay: IL-2 secretion from activated Jurkat T cells (ELISA); format: cell-based, human; conditions: for IL-2 [ ]pg/ml (1) / IL-2 % Control (1): experiment (1); for IL-2 % Control (1) / IL-2 % Control (2) / IL-2 % Control (3): relative to DMSO 0.1%; for IL-2 [ ]pg/ml (2) / IL-2 % Control (2): experiment (2); for IL-2 [ ]pg/ml (3) / IL-2 % Control (3): experiment (3)
# Experimental: The T cell line Jurkat 6.1 (ATCC) was used. Cells were pre-treated for 30 min with 1 μM or 10 μM of the respective compound and then stimulated with plate-bound anti-CD3 (BD Pharmingen) and anti-CD28 (AnCell). DMSO was used as vehicle control. The immunosuppressive agent Cyclosporine A was used as a control for inhibition of IL-2 production. After 24 hs the supernatant was collected and IL-2 secretion was measured by ELISA.
# Jurkat T cells were cultured in RMPI-1640 medium containing 10 % Foetal Bovine Serum, Penicillin/Streptomycin and L-Glutamine in T-75cm2 flasks at 37° C. and 5 % CO2. Cells were seeded into new culture flasks at a density of 1-3×10^5 cells per ml and maintained at a density of 0.5−1×10^6 cells per ml.
# (§1) (A) Anti-TCR/CD28-mediated activation of Jurkat cells: Experiments involving anti-TCR/CD28-mediated activation of Jurkat T lymphocytes were carried out on 24-well cell culture plates. The plates were coated with a 1/100 dilution of rabbit anti-mouse IgG in sterile PBS (1×) and incubated overnight at 4OC. Unbound antibody was aspirated and the wells were gently rinsed with warm sterile PBS. The PBS was aspirated and the wells were coated with a 1/100 dilution of anti-TCR antibody (OKT-3) and a 1/200 dilution of anti-CD28 antibody (both antibodies pre-mixed prior to addition to the plates) in sterile PBS. The plates were then incubated for 1-2 hours at 37° C. Unbound antibody was aspirated and the wells were gently rinsed with warm PBS. The PBS was left on the plate until the Jurkat cells were ready to be added to the plate. The Jurkat cells were harvested from the T-75cm2 cell culture flasks and resuspended at a density of 0.5×10^6 cells per ml. The compounds were dissolved at a specified stock concentration (see results section) and diluted to the required concentration by adding the drug to the cell suspension. The cells were then pre-incubated with the compounds or with an equivalent volume of drug vehicle control (DMSO) for 30 minutes prior to adding the cell suspension to the antibody-coated plates. Cyclosporine A (1 μM) was used as a positive control to inhibit IL-2 production from activated T cells and was preincubated with the 6 cells as described above in parallel. The cells were then incubated on the plates with the acti-TCR/CD28 antibodies for 24 hours at 37° C. and 5% CO2 in a humidified atmosphere. After 24 hours, the cell suspension was removed from the plates and the cells were pelleted by centrifugation. The cell culture supernatant was saved and analysed for secreted IL-2 by ELISA. The cell pellet was saved and cell viability was measured using Acridine Orange/Ethidium Bromide cell viability staining solution.
# (B) PHA/PMA-mediated activation of Jurkat cells Jurkat cells were resuspended at a concentration of 0.5×10^6 cells per ml and the Pharmatrin compounds at the desired concentration or an equivalent volume of drug vehicle control (DMSO) were added to the cells and incubated for 30 minutes. Cyclosporine A (1 ∝M) was used as a positive control to inhibit IL-2 production from activated T cells and was preincubated with the cells as described above in parallel. PHA and PMA were added to the cell suspension (10 ∝g/ml and 10 ng/ml respectively) and the cells were plated onto uncoated 24-well plates. The cells were incubated on the plates for 24 hours at 37° C. and 5 % CO2 in a humidified atmosphere. After 24 hours, the cell suspension was removed from the plates and the cells were pelleted by centrifugation. The cell culture supernatant was saved and analysed for secreted IL-2 by ELISA.
# The cell culture supernatants were analysed for IL-2 by ELISA (96-well plate format) using the Human IL-2 ELISA kit from R&D Systems Europe. This assay was carried out using the standard protocol outlined by the company. Samples and standards (recombinant human IL-2 provided by R&D Systems) were analysed in triplicate. […]
# Jurkat cells = assay: Jurkat cell viability (Acridine Orange/Ethidium Bromide); format: cell-based
# Experimental: as §1
# The cell pellet was resuspended in 20 μl of Acridine Orange/Ethidium Bromide staining solution. A portion of this cell suspension was placed on a haemocytometer and analysed under a fluorescence microscope. […] The ratio of viable cells: non-viable cells were calculated for each activation time point/drug treatment.
# [3] = RBL-2H3 cells, Inflamm. Res. 57 (2008)
compound,measurement,setting,value
"O[C@@H]1c2ccccc2C[C@]1(Cc1ccccc1)C1=Cc2ccccc2C1 (racemic) [Compound 5, (R,S and SR)2-Benzyl-2,3-dihydro-1H,1′H-2,2′-biinden-1-ol]",inhibition of β-hexosaminidase release,[1]; [3],dose dependent inhibition
"COc1ccc2c(c1)c(CC(=O)O)c(C)n2C(=O)c1ccc(Cl)cc1 [Indomethacin, reference compound]",ear swelling (increase in ear thickness),BalbC mice,40%
"C[C@@H]1C[C@H]2[C@@H]3CCC4=CC(=O)C=C[C@]4(C)[C@@]3(F)[C@@H](O)C[C@]2(C)[C@@]1(O)C(=O)CO [dexamethasone, reference compound]",increase in ear punch weight,Balb/C mice,42%
"(R,S or SR)2-Benzyl-2,3-dihydro-1H,1′H-2,2′-biinden-1-ol [Compound 8]",IL2 release from Jurkat cells,[2],inhibited IL2 release
same,IL-2 [ ]pg/ml (1),[2]; 0.3 uM,44.20 pg/mL
same,IL-2 % Control (1),[2]; 0.3 uM,216.67%
same,IL-2 [ ]pg/ml (2),[2]; 0.3 uM,50.10 pg/mL
same,IL-2 % Control (2),[2]; 0.3 uM,245.59%
same,IL-2 [ ]pg/ml (3),[2]; 0.3 uM,107.03 pg/mL
same,IL-2 % Control (3),[2]; 0.3 uM,77.39%
same,IL-2 [ ]pg/ml (1),[2]; 1 uM,37.95 pg/mL
same,IL-2 % Control (1),[2]; 1 uM,186.03%
same,IL-2 [ ]pg/ml (2),[2]; 1 uM,39.65 pg/mL
same,IL-2 % Control (2),[2]; 1 uM,194.36%
same,IL-2 [ ]pg/ml (3),[2]; 1 uM,111.75 pg/mL
same,IL-2 % Control (3),[2]; 1 uM,80.81%
same,IL-2 [ ]pg/ml (1),[2]; 3 uM,34.45 pg/mL
same,IL-2 % Control (1),[2]; 3 uM,168.87%
same,IL-2 [ ]pg/ml (2),[2]; 3 uM,36.00 pg/mL
same,IL-2 % Control (2),[2]; 3 uM,176.47%
same,IL-2 [ ]pg/ml (3),[2]; 3 uM,102.92 pg/mL
same,IL-2 % Control (3),[2]; 3 uM,74.42%
same,IL-2 [ ]pg/ml (1),[2]; 10 uM,20.15 pg/mL
same,IL-2 % Control (1),[2]; 10 uM,98.77%
same,IL-2 [ ]pg/ml (2),[2]; 10 uM,25.65 pg/mL
same,IL-2 % Control (2),[2]; 10 uM,125.74%
same,IL-2 [ ]pg/ml (3),[2]; 10 uM,81.78 pg/mL
same,IL-2 % Control (3),[2]; 10 uM,59.13%
same,IL-2 [ ]pg/ml (1),[2]; 30 uM,-2.80 pg/mL
same,IL-2 % Control (1),[2]; 30 uM,−13.73%
same,IL-2 [ ]pg/ml (2),[2]; 30 uM,-3.00 pg/mL
same,IL-2 % Control (2),[2]; 30 uM,−14.71%
same,IL-2 [ ]pg/ml (3),[2]; 30 uM,76.25 pg/mL
same,IL-2 % Control (3),[2]; 30 uM,55.14%
same,IL-2 [ ]pg/ml (1),[2]; 100 uM,-12.55 pg/mL
same,IL-2 % Control (1),[2]; 100 uM,−61.52%
same,IL-2 [ ]pg/ml (2),[2]; 100 uM,-12.80 pg/mL
same,IL-2 % Control (2),[2]; 100 uM,−62.75%
same,IL-2 [ ]pg/ml (3),[2]; 100 uM,8.11 pg/mL
same,IL-2 % Control (3),[2]; 100 uM,5.87%
same,cell viability,Jurkat cells,without affecting cell viability
"(S,S and RR)2-Benzyl-2,3-dihydro-1H,1′H-2,2′-biinden-1-ol [Compound 6]",inhibition of β-hexosaminidase release,"[1]; RBL-2H3 cells stimulated by calcium ionophore A23187, Bioorg. Med. Chem. Lett. 19(20), 2009",dose-dependant inhibition
same,inhibition of β-hexosaminidase release,[1]; [3],dose dependent inhibition
